Tests used:
TLR4 = experiment: TLR multiplex sensor, EIS film resistance before/after exposure (Example 5), TLR4 sensor; assay type: binding; details: exposure 20 minutes
Experimental: For each multiplex TLR sensor, 5 separate gold electrodes were used for binding TLR 1 to 5. The 5 modified electrodes/sensors were exposed to the analyte solution and evaluated one by one using potentiostats and electrochemical cells.
The preparation of each TLR biosensor was evaluated using EIS. It is understood that cyclic voltammetry as well as electrochemical impedance microscopy can also be used for monitoring the modification. […] Ethanolamine was then applied to deactivate unreacted LPA. Due to dissociation of unspecific absorbed TLR, the Rct dropped slightly. Experimental curves were evaluated using a model to obtain the Rct values, which can be seen at FIG. 9. Measurements from at least triplicated samples prepared were used to obtain statistic information.
The TLR1 sensor was exposed to an E. coli K12 whole-cell buffer solution for 20 minutes. The sensor was then removed, washed thoroughly and characterized in the electrochemical cell measuring the Rct again. The difference in Rct before and after exposure is the response triggered by the target. The same protocol was carried out for all remaining TLRs (TLRs 2-5) to obtain one set of pattern for E. coli K12 (FIGS. 10b to 10e). Multiple sets were investigated for statistical relevance. […]

'rmTLR1 and 2' mixture = target: T1, 'rmTLR1 and 2' mixture (Mus musculus, UniProt Q9EPQ1+Q9QUN7); experiment: Label-free hybridized 'TLR1 and 2' sensor, EIS detection of Pam3CSK4 (Example 7); assay type: binding; details: for delta Rct % / Rct: 'TLR1 and 2' sensor; for delta Rct %: 20 minutes; for Rct: before immersion 5472
T1 construct: Fc (chimera); purchased R&D Systems RDS1476TR050 + RDS1530TR050
T1 sequence (Q9EPQ1 26-582 limits assumed): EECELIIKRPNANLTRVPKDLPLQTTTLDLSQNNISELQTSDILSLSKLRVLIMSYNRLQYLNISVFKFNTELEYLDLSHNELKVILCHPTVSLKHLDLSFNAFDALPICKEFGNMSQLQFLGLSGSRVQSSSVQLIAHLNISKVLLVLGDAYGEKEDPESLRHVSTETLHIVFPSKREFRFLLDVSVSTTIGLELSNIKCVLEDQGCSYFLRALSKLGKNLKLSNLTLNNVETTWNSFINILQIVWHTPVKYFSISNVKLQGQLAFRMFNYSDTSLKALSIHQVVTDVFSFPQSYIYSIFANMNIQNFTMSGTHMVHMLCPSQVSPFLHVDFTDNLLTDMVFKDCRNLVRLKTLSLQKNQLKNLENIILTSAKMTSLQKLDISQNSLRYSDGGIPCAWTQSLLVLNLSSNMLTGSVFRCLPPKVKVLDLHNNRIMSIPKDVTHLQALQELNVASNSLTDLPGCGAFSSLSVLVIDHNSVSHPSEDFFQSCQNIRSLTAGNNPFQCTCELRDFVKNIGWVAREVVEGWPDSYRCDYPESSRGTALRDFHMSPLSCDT
T1 sequence (Q9QUN7 25-587 limits assumed): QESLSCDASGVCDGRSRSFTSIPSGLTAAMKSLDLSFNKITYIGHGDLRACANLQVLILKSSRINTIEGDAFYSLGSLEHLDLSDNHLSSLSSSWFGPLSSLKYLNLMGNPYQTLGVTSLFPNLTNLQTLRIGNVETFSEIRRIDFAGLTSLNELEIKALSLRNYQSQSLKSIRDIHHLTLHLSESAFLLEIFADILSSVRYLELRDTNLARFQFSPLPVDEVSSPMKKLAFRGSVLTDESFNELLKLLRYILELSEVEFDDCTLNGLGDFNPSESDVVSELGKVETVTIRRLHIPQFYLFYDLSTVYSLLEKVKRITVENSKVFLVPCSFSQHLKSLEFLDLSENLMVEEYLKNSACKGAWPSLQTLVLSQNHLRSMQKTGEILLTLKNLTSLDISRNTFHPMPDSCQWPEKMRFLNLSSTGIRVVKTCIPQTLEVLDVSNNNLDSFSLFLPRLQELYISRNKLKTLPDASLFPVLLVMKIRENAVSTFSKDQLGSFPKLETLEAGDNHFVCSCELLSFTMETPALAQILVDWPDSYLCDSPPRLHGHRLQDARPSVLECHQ
Experimental: TLR sensors were prepared using fresh, cleaned gold electrodes. The electrodes were immersed in a 2 mM 1-lipoic acid n-hydroxysuccinimide ester (LPA) ethanol solution for 48 hours at 277 K. The electrodes were then rinsed thoroughly using absolute ethanol and blown dry under nitrogen before incubation in 200 μg/ml rmTLR1, 200 μg/ml rmTLR2 and 200 μg/ml ‘rmTLR1 and 2’ mixture for 72 hours at 277 K. The rmTLR1 and 2 mixture was prepared by mixing 200 μg/ml rmTLR1 and 200 μg/ml rmTLR2 with a volume ratio of 1:1. The final concentration of each component was 100 μg/ml and the total concentration of the combined TLR protein content was 200 μg/ml. Following the supplier's recommended conditions, all TLRs were prepared in PBS buffer (pH˜7.4). The electrodes were rinsed with an excess volume of Milli-Q water and blown dry under nitrogen. An ethanolamine-tris buffer solution was prepared by dissolving 1.2 g of ethanolamine and 0.121 g of Tris base in 20 mL of water, the pH was adjusted to 8.4 using hydrochloric acid. TLR-immobilized electrodes were incubated in the ethanolamine solution for one hour at room temperature in order to block any remaining unreacted LPA amine sites. The fabricated sensors with immobilized, standalone rmTLR3, rmTLR4/MD-2 and rmTLR5, used for the selectivity test, were prepared using the same protocol described above.
Pam3CSK4 was dissolved in 10 mM HEPES aqueous buffer at pH˜7.4. The blocked rmTLR biosensors were incubated in Pam3CSK4 at various concentrations for 20 minutes. The electrodes were always washed thoroughly with same HEPES buffer (pH˜7.4) after the incubation.
All electrochemical measurements were carried out using a cell with a three-electrode configuration in an enclosed Faraday cage. CV and EIS measurements were completed using a CHI-660b potentiostat (CH Instruments, Austin, Tex.). rmTLR-modified gold electrodes and platinum (Pt) wire were used as the working electrode and the counter electrode, respectively. A reference electrode (Ag/AgCl/3.0M KCl) and a salt bridge, filled with an agar and 1M KNO3 aqueous solution, were inserted to minimize the diffusion of chloride ions into the electrolyte solution. The agar solution was prepared by dissolving 2.0 grams of agar and 10.1 g KNOB in 100 mL of water. The CV and EIS electrolyte was made in a 10 mM HEPES aqueous buffer at pH˜7.4, which consisted of a 5 mM K4Fe(CN)6/5 mM K3Fe(CN)6 as a redox couple with 1M of NaClO4 as the supporting electrolyte. For consistency, the electrochemical measurements were carried out with open-circuit potentials. EIS experiments were conducted in the frequency range of 100,000 to 0.1 Hz with an amplitude of 5 mV. The experimental EIS curves were evaluated to determine the film resistance using ZSimpWin 2.0 software.

Pam3CSK4 was tested, and the “delta Rct %” value (TLR4) was “limited responses”, the “delta Rct %” value ('rmTLR1 and 2' mixture; 5 μM) was 37±11% and the “delta Rct %” value ('rmTLR1 and 2' mixture; 25 μM) was 125±19%. For the same substance, the “delta Rct %” value ('rmTLR1 and 2' mixture; 50 μM) was 199±26%, the Rct ('rmTLR1 and 2' mixture; after 5 μM) was 5688 Ω · cm^2 and the Rct ('rmTLR1 and 2' mixture; after 10 μM) was 7147 Ω · cm^2. The Rct ('rmTLR1 and 2' mixture; after 25 μM) was 11260 Ω · cm^2, the Rct ('rmTLR1 and 2' mixture; after 50 μM) was 15620 Ω · cm^2 and the limit of detection ('rmTLR1 and 2' mixture; hybridized 'TLR1 and 2' sensor) was 5 µM.
